Laboratory results: article PMC7920280, “The Multi-Targeting Ligand ST-2223 with Histamine H3 Receptor and Dopamine D2/D3 Receptor Antagonist Properties Mitigates Autism-Like Repetitive Behaviors and Brain Oxidative Stress in Mice” (International Journal of Molecular Sciences, 2021)

Assays:
Assay type in all cases: in vivo
[1] = system: superoxide dismutase (SOD); assay: Superoxide dismutase (SOD) activity in brain parts of treated BTBR mice; settings: i.p., ST-2223 5 mg/kg, RAM 10 mg/kg, ARP 1 mg/kg, MEM 5 mg/kg, mean ± SEM; for SOD, Prefrontal Cortex: n = 3-6, BTBR vehicle 45.1 ± 2.8; for SOD, Hippocampus: n = 3-6, BTBR vehicle 49.5 ± 0.5; for SOD, Cerebellum: n = 3-6, BTBR vehicle 49.7 ± 1.3; for SOD, Striatum: n = 3-6, BTBR vehicle 51.8 ± 1.2
Method: (§1) At the end of the behavioral assessments, the animals were sacrificed following previously published protocols. Animals were anesthetized with pentobarbital (40 mg/kg, body weight, i.p.), sacrificed, and perfused via intracardial infusion to wash out the blood, using 1× PBS (0.01 M phosphate buffer, 0.0027 M potassium chloride and 0.137 M sodium chloride) at pH 7.4. […] The brains were then quickly removed and placed on an ice plate. The cerebellum, hippocampus, prefrontal and striatum were excised from the brain and snap-frozen in liquid nitrogen for further use in biochemical assessments. On the day of the biochemical tests, the tissues were homogenized using radioimmunoprecipitation assay (RIPA) buffer (50 mM Tris HCl, pH 7.4, 140 mM NaCl, 1 mM EDTA, 0.5% Triton X-100 and 0.5% sodium deoxycholate) supplemented with protease and phosphatase inhibitors. Then, the homogenates were centrifuged at 14,000 rpm for 30 min (4 °C), and the supernatant was used for evaluation of lipid peroxidation, glutathione, and antioxidant enzymes using spectrophotometric measurements and enzyme-linked immunosorbent assays (ELISA)..
(§2) To assess the activity of antioxidant enzymes Superoxide dismutase (SOD) and Catalase (CAT), commercially available kits were used, following the manufacturer’s instructions, and as previously reported. Cayman assay kits (Cayman Chemicals Company, Ann Arbor, MI, USA) were used to assess antioxidant enzyme (superoxide dismutase (SOD) and catalase (CAT)) activities in experimental animals. Catalase assay: Twenty microliters of samples or standards and 30 μL of methanol was added to the assay buffer (100 μL) in 96-well plates. To this mixture, twenty microliter of hydrogen peroxide was added and incubated for 20 min at room temperature (RT) to initiate the reaction. Following incubation, 30 μL of potassium hydroxide was used to terminate the reaction, followed by subsequent addition of catalase purpald (30 μL) and catalase potassium periodate (10 μL). The plate was incubated for 5 min at room temperature in a shaker and the plate was read at 540 nm using a microplate reader. Catalase activity was expressed as nmol/min/mg protein. Superoxide dismutase assay: ten microliters of sample or standard was added in 96-well plates. Twenty microliters of xanthine oxidase were added to initiate the reaction. The reaction mixture was mixed for few seconds and incubated (covered) for 30 min at room temperature (RT). Absorbance was read at 450 nm using microplate reader. The activity of SOD was expressed as units/mg protein.

[2] = system: glutathione (GSH); assay: Quantification of glutathione (GSH) in brain parts of treated BTBR mice; settings: i.p., ST-2223 5 mg/kg, RAM 10 mg/kg, ARP 1 mg/kg, MEM 5 mg/kg, mean ± SEM; for GSH, Striatum: n = 3-6, BTBR vehicle 583 ± 68.8; for GSH, Cerebellum: n = 3-6, BTBR vehicle 827 ± 93.3; for GSH, Prefrontal Cortex: n = 3-6, BTBR vehicle 835 ± 97.4; for GSH, Hippocampus: n = 3-6, BTBR vehicle 1096 ± 16.7
Method: as §1
Levels of GSH in tissue homogenates were carried out according to the manufacturer’s instructions of the commercially available Sigma’s glutathione assay kit (Sigma-Aldrich Chemie GmbH, Steinheim), and as previously described. In brief, samples were first deproteinized with 5% 5-sulfosalicylic acid solution, centrifuged to remove the precipitated protein, and then the supernatant was used to estimate GSH. Ten microliter samples or standards were incubated with 150 μL of working mixture (assay buffer + 5,5′-dithiobis (2-nitrobenzoic acid) + GSH reductase) in 96-well plates for 5 min. Diluted NADPH solution (50 µL) was added into each well and mixed thoroughly. Absorbance was measured at 412 nm with the kinetics for 5 min by using the microplate reader. Results are expressed as µM GSH/mg protein.

[3] = system: catalase (CAT); assay: Catalase (CAT) activity in brain parts of treated BTBR mice; settings: i.p., ST-2223 5 mg/kg, RAM 10 mg/kg, ARP 1 mg/kg, MEM 5 mg/kg, mean ± SEM; for CAT, Prefrontal Cortex: n = 3-6, BTBR vehicle 80.1 ± 14.9; for CAT, Striatum: n = 3-6, BTBR vehicle 104.6 ± 2.28; for CAT, Hippocampus: n = 3-6, BTBR vehicle 111.4 ± 4.8; for CAT, Cerebellum: n = 3-6, BTBR vehicle 130. 7 ± 3.3
Method: as §1, §2

[4] = system: BTBR and B6 mice; assay: Spontaneous alternation behavior (SAB), Y maze; settings: i.p., ST-2223 2.5, 5 and 10 mg/kg, MEM 5 mg/kg, ARP 1 mg/kg
Method: The drugs tested included ST-2223 [N-(4-(4-(2-methoxyphenyl)piperazin-1-yl)butyl)-6-(3-(piperidin-1-yl)propoxy)-2-naphthamide] that was designed and synthesized in the Institute of Pharmaceutical and Medicinal Chemistry, Heinrich Heine University Düsseldorf, Germany, and in accordance with previously described methodologies (Supplementary Materials). Aripiprazole (ARP) (1 mg/kg, i.p.) and memantine (MEM, 5 mg/kg, i.p.), as reference drugs, were purchased from Sigma-Aldrich (St. Louis, MO, USA). The CNS-penetrant H3R agonist (R)-α-methylhistamine (RAM, 10 mg/kg, i.p.) was purchased from Sigma-Aldrich, St. Louis, MO, USA. T. Protease and the phosphatase inhibitor cocktail were procured from Thermo Scientific, USA. The assay kit for reduced glutathione (GSH) was obtained from Sigma-Aldrich (St. Louis, MO, USA). The lipid peroxidation assay kit for estimation of malondialdehyde (MDA) was purchased from North West Life Science (Vancouver, WA, USA). The assay kits for superoxide dismutase (SOD) and catalase (CAT) were purchased from Cayman Chemical (Ann Arbor, MI, USA). The drugs were prepared daily using 1% dimethyl sulfoxide (DMSO) in 0.9% saline, for intraperitoneal (i.p.) administration at a volume of 10 mL/kg of body weight. Vehicle treatment consisted of 1% DMSO in 0.9% normal saline. All drugs were i.p. administered 30 min before the behavioral test. The doses of these drugs were chosen based on previous reports. Neurobehavioral assessment was performed blindly with respect to experimental group and drug administration.
The SAB test is based on the exploratory strategy of rodents to explore a new environment. In examining repetitive behaviors, the Y maze test took advantage of the rodents’ natural tendency to spontaneously alternate or choose a different arm of the maze instead of the one they visited on their previous entry (i.e., least recently visited arm). A decrease in the percentage alternation can also be attributed to same arm repeated visits. Spontaneous alternation behavior was measured on a Y maze apparatus, as previously described, with slight modifications. The Y maze composed of three arms (30 cm × 6 cm × 15 cm), where the arms were labeled with letters: A, B, or C. The test mouse was placed in the center of the maze and was allowed to freely explore the maze for 8 min. The number of entries into each arm and the total number of entries were recorded by the observer. A spontaneous alternation was defined as successive entry into three arms on an overlapping triplet set. Percentage spontaneous alternation was calculated as the number of spontaneous alternations (actual alternations) over the total number of entries (possible alternations). Two arm entries were subtracted from the denominator because an alternation required at least 3 entries. The apparatus was cleaned with 70% alcohol solution after each mouse was tested. (1) Percentage spontaneous alternations=Total alternations/(Total arm entries − 2) ×100

Row | Compound | SOD, Prefrontal Cortex [1] [units/mg protein] | SOD, Hippocampus [1] [units/mg protein] | SOD, Cerebellum [1] [units/mg protein] | SOD, Striatum [1] [units/mg protein] | GSH, Striatum [2] [µM GSH/mg protein] | GSH, Cerebellum [2] [µM GSH/mg protein] | GSH, Prefrontal Cortex [2] [µM GSH/mg protein] | GSH, Hippocampus [2] [µM GSH/mg protein] | CAT, Prefrontal Cortex [3] [nmol/min/mg protein] | CAT, Striatum [3] [nmol/min/mg protein] | CAT, Hippocampus [3] [nmol/min/mg protein] | CAT, Cerebellum [3] [nmol/min/mg protein] | percentage of spontaneous alternation vs vehicle-treated B6 mice [4] | percentage of spontaneous alternation vs vehicle-treated BTBR mice [4]
1 | O=C1CCc2ccc(OCCCCN3CCN(c4cccc(Cl)c4Cl)CC3)cc2N1 [ARP, aripiprazole] | 54.0 ± 5.2 | 51.8 ± 2.0 | 56.4 ± 1.1 | 65.7 ± 7.7 | 1139 ± 74.6 | 1030 ± 36.2 | 935 ± 98.0 | 611.5 ± 62.6 | 96.2 ± 1.3 | 120.5 ± 10.1 | 118.3 ± 6.5 | 159.2 ± 5.1 | did not alter | failed to significantly mitigate
2 | CC12CC3CC(C)(C1)CC(N)(C3)C2 [MEM, memantine] | 44.9 ± 2.2 | 41.4 ± 3.4 | 64.4 ± 3.1 | 66.47 ± 4.4 | 915.5 ± 97.3 | 877 ± 55.7 | 719.3 ± 50.0 | – | 94.1 ± 4.8 | 108.1 ± 3.4 | 114.3 ± 11.2 | 132.3 ± 4.5 | did not alter | significantly increased
3 | COc1ccccc1N1CCN(CCCCNC(=O)c2ccc3cc(OCCCN4CCCCC4)ccc3c2)CC1 [ST-2223, N-(4-(4-(2-methoxyphenyl)piperazin-1-yl)butyl)-6-(3-(piperidin-1-yl)propoxy)-2-naphthamide] | 43.2 ± 3.4 | 48.1 ± 4.2 | 64.3 ± 1.0 | 51.2 ± 7.7 | 1007 ± 93.1 | 1108 ± 41.1 | 1212 ± 302.6 | 916 ± 4.2 | 116.8 ± 5.3 | 119.1 ± 3.7 | 173.0 ± 1.9 | 120.6 ± 8.8 | did not alter | significantly increased
